Where no end group is shown, it is not given here.
Key:
[1] = system: ICAM-1 surface expression, EA.hy926 cells; assay: ICAM-1 surface expression by flow cytometry (MFI); type: cell-based, human; details: for ICAM-1 surface density (in words): 300 µM peptide + TNF-α vs TNF-α activated cells, all p < 0.05; for ICAM-1 MFI: preincubation with 300 µM peptide, then 100 ng/mL TNF-α, six independent experiments, mean ± SD, p vs TNF-α: BP1 0.03, BP2 0.009, BP3 0.09, BP4 0.04, control 71.36 ± 8.31
Method: EA.hy926 cells, the hybrid human umbilical vein endothelial cell line, were obtained from the American Type Culture Collection (ATCC® CRL2922™, Rockville, MD, USA). Cells were cultured in high glucose Dulbecco’s Modified Eagle’s Medium (DMEM), containing 10% heat-inactivated fetal bovine serum (FBS, Biowest, Riverside, CA, USA) and 50 U/mL of penicillin and 50 µg/mL streptomycin (Sigma Aldrich Chemical Co., Saint Louis, MO, USA). Cells were grown in 5% CO2 in a humidified air incubator at 37 °C. Subculture was performed when 90% confluence was reached.
(§1) EA.hy926 were seeded in six-well plates at 0.25 × 10^6 cells/well in DMEM supplemented with 5% FBS. Cells were treated with 300 µM of each peptide for 16 h. Then, 100 ng/mL TNF-α or 300 µM H2O2 were added for an additional 6 h or 24 h, respectively.
To measure adhesion molecule content in human endothelial cells by flow cytometry, the cell monolayer was detached and fixed before immunofluorescence labelling. The following antibodies were used per sample: 20 µL anti-ICAM-1/CD54-phycoerythrin (PE) (clone HA58, BD Biosciences, Franklin Lakes, NJ, USA) and 5 µL anti-VCAM-1/CD106-PerCP-Cy5.5 (clone 51–10C9; BD Biosciences, San Jose, CA, USA), according to the manufacturer’s protocol. Stained cells (10,000 events) were examined by flow cytometry (FACS Calibur, Becton Dickinson, Mountain View, CA, USA) in a simultaneous two-color analysis with FL2 (PE) and FL3 (PerCP-Cy5.5) channels. Markers were set according to the negative controls to quantify the percentage of positively stained cells. Mean Fluorescence Intensity (MFI) was calculated for each antigen (MFI of total stained cells-MFI of negative control cells).

[2] = system: ICAM-1 protein, EA.hy926 cells; assay: Intracellular ICAM-1 protein by western blot; type: cell-based, human; details: 300 µM peptide + 100 ng/mL TNF-α vs TNF-α stimulation; p < 0.01
Method: as §1
Supplementary Material and Methods
1.1. Human ACE Inhibitio n Assa y
Before transfection, the endothelial ACE expressio n level was very low and the p roduct of the enzymatic reaction undete ctable, and so a recombinant construct e ncodi ng the Myc-Tag fused to the ACE ge ne was used. T o overexpress the ACE enzyme, EA.hy926 cel ls were seeded in 24-well plates at 80,000 cells/well and transiently transfec ted with a human Ace ORF mammali an expression plasmid (Sinobiological, Beijing, China) using trans-it X2 reagent ( Myrus®, Madi son, […]
Wisconsin, USA). […] The effi ciency of […]
transfecti on was checked by immunofluorescence. Briefly, 48 h post-transfection, cells were fixed with 4% paraformaldehyd e in culture medi um for 15 min at room temperatur e, blocked with 1% bo vine seru m albumin (BSA) in phosph ate buffer for 30 min followed by 0.2% sapo nin for 30 min to permeabil ize the membr ane. […]
The mRNA level s of the target genes (ICAM-1, VCAM-1, IL-6, eNOS, SOD, catal ase, NADPH, BAX) were quantified by RT-PCR using Se nsiFAST SYBER Hi-ROX Kit (Bioline, Taunton, USA) with StepOnePlus Real-Time PCR Sy stem (Appl ied Bi osystems, Foster City, CA, USA) using speci fi c and vali dated pri mers (Si gma-Al drich Chemical Co., Saint Louis, MO, USA).
The tetr azolium assay (MTT) was used to estimate the cel l viability in the presence of synthetic pepti des (up to 600 µM) and 300 µM H2O2. […] The formazan crystals formed in the intact cel ls were dissol ved in 200 µL dimethyl sulfoxide (DMSO) for 30 min and the absorbance was measured in a micro plate reader at 570 nm and 620 nm of reference. Results wer e calculated as cel l viability (%) = average optic density (OD) of wells/ave rage OD of control wells. […]

[3] = system: EA.hy926 cells; assay: Annexin V / propidium iodide apoptosis and necrosis by FACS; type: cell-based, human; details: preincubation with 300 µM peptide, then 300 µM H2O2; three independent experiments, mean ± SD; NS vs H2O2 alone
Method: as §1
ApoScreen Annexin V Apoptosis Kit-FITC (Southern Biotech, Birmingham, AL, USA) was used to detect the apoptosis rate. After the co-incubation of synthetic peptides and 300 µM H2O2, 0.4 × 10^6 cells were detached and washed in cold PBS, then resuspended in 100 µL Annexin V binding buffer and treated following the manufacturer’s protocol. Annexin V-fluorescein isothiocyanate (FITC) binding was assessed in FL1 channel simultaneously with propidium iodide (FL2 channel). This test discriminates among intact cells (FITC−/PI−), apoptotic cells (FITC+/PI−), and necrotic cells (FITC+/PI+). Assays were performed in triplicate (Table S1).

[4] = target: human ACE (Homo sapiens, UniProt P12821); assay: Human ACE inhibition assay (lysate of ACE-transfected EA.hy926 cells, HHL substrate, HPLC)
Chain of human ACE (P12821 30-1306): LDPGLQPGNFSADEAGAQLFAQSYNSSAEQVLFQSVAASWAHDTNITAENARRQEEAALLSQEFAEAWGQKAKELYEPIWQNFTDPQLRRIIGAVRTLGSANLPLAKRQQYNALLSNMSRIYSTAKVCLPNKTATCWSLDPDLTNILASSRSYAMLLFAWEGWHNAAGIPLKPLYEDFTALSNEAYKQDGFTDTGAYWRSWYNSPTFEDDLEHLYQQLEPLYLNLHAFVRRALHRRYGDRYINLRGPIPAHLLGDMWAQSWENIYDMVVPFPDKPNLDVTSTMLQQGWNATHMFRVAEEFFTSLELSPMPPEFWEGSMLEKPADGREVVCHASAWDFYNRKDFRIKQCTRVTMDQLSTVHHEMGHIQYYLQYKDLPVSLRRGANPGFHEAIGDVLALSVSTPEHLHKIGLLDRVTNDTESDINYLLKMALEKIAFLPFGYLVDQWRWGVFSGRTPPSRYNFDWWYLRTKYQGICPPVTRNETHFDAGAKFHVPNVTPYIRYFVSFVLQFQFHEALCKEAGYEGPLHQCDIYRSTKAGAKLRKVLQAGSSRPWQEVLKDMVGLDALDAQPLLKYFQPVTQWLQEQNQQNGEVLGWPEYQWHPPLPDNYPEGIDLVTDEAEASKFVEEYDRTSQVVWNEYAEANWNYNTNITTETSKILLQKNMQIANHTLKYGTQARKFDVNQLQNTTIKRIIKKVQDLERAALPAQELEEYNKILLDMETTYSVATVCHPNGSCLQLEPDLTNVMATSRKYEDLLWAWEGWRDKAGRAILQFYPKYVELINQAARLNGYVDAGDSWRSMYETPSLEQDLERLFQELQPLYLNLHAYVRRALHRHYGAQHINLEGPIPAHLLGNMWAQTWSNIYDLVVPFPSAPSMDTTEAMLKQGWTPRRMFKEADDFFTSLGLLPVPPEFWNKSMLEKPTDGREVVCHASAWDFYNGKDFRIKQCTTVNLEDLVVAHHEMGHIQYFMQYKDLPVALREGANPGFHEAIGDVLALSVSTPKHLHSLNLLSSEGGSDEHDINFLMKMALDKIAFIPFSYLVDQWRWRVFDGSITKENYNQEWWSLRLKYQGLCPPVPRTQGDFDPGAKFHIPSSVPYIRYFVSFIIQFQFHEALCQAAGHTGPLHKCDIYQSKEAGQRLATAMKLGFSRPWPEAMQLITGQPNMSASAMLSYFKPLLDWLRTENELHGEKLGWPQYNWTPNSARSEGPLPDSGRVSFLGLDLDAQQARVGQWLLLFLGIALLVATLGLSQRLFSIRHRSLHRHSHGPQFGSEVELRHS

In the case of KAAAATP [BP2], the “ICAM-1 surface density (in words)” value [1] is reported as “reduced ICAM-1 surface density”, the “ICAM-1 MFI” value [1] is reported as 1064.42 ± 32.02 and the “ICAM-1 protein production (western blot)” value [2] is reported as “lower production of ICAM-1 protein”. The “Apoptosis (AnV+/PI-), % cells” value [3] was 14.47 ± 2.42%, the “Necrosis (AnV+/PI+), % cells” value [3] was 19.58 ± 0.18% and the IC50 [4] was > 1000 µM.

With AAATP [BP4] the “ICAM-1 surface density (in words)” value [1] was “reduced ICAM-1 surface density”, the “ICAM-1 MFI” value [1] was 926.01 ± 152.46 and the “ICAM-1 protein production (western blot)” value [2] was “lower production of ICAM-1 protein”. The “Apoptosis (AnV+/PI-), % cells” value [3] was 12.16 ± 1.86%, the “Necrosis (AnV+/PI+), % cells” value [3] was 18.42 ± 6.34% and the IC50 [4] was > 1000 µM.

From paper PMC6747274, “Multifunctional Peptides from Spanish Dry-Cured Pork Ham: Endothelial Responses and Molecular Modeling Studies” (International Journal of Molecular Sciences, 2019)
